This note sets out measurements from ChEMBL document CHEMBL1201862, “PubChem BioAssay data set” (2004).

Among the test systems are 786-0; A549; ACHN; CCRF-CEM; COLO 205; HCT-15; HOP-92; Malme-3M; NCI-H522; OVCAR-8; SK-MEL-28; SN12C; SNB-75; SW-620; DU-145; MCF7; MDA-MB-435; NCI/ADR-RES; T47D.
Common to all, as to assay: NCI-60 cell line screen, 48 h

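Values below derive from 48-hour exposures of cells grown in 96-well plates, with endpoints linearly interpolated between the two concentrations bracketing the appropriate inhibition level. Here, GI50 denotes the concentration required for 50% inhibition of growth.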 Activity calls are given as the source filed them. Cut-off read from the data, not from the text of the source: active = GI50 up to about 1.1 µM and inactive = higher.

As for `O=c1c2cc3c(cc2c2cccc4c2n1CCC4)OCO3`, the GI50 in the experiment on 786-0 is 27 µM (inactive); in the experiment on A549 it was 51.6 µM (inactive); in the experiment on ACHN it was 33.7 µM (inactive); with CCRF-CEM, 89.3 µM (inactive); with COLO 205 it was 26.3 µM (inactive); in the experiment on HCT-15 it was 36.7 µM. The GI50 in the experiment on HOP-92 is 55.5 µM (inactive); with Malme-3M it was 86.1 µM (inactive); in the experiment on NCI-H522, 16.2 µM (inactive); in the experiment with OVCAR-8 it was 48.1 µM (inactive); with SK-MEL-28 it was 69.5 µM (inactive); with SN12C, 36.8 µM (inactive). Besides, the GI50 in the experiment with SNB-75 is 26.7 µM (inactive); with SW-620 it was 29.4 µM (inactive).

For the molecule `Cc1ccc(Cl)c2c1NC(=O)/C2=N\Nc1ccccc1[N+](=O)[O-]`, the GI50 with 786-0 is 28.8 µM (inactive); in the experiment on A549, 83 µM (inactive); with ACHN, 76.7 µM (inactive); with CCRF-CEM, 24.5 µM (inactive); with COLO 205 it was 46.3 µM (inactive); with DU-145 it was 47.1 µM (inactive). Also, the GI50 was 37.8 µM with HCT-15; 42.5 µM (inactive) in the experiment with HOP-92; 36.3 µM (inactive) with MCF7; 15.7 µM (inactive) in the experiment on MDA-MB-435; 42.7 µM (inactive) in the experiment on Malme-3M; 57.1 µM (inactive) in the experiment with NCI/ADR-RES. Besides, the GI50 in the experiment with OVCAR-8 was 39.7 µM (inactive); in the experiment on SK-MEL-28 it was > 100 µM (inactive); in the experiment on SN12C it was > 100 µM (inactive); in the experiment on SNB-75, 54.5 µM (inactive); in the experiment on SW-620, 27 µM (inactive); in the experiment with T47D, 44.3 µM (inactive).

Turning to `CCn1c2ccccc2c2c(-c3ccccc3)cc3c(c21)C(=O)N(c1ccccc1)C3=O`, the GI50 is > 100 µM (inactive) in the experiment on 786-0; > 100 µM (inactive) with A549; 99.8 µM (inactive) with ACHN; > 100 µM (inactive) with CCRF-CEM; > 100 µM (inactive) with COLO 205; > 100 µM with HCT-15. For the same molecule, the GI50 was 34.4 µM (inactive) in the experiment with HOP-92; > 100 µM (inactive) with Malme-3M; > 100 µM (inactive) in the experiment on NCI-H522; > 100 µM (inactive) with OVCAR-8; > 100 µM (inactive) in the experiment with SK-MEL-28; 91 µM (inactive) in the experiment on SN12C. Moreover, the GI50 in the experiment with SNB-75 is 89.5 µM (inactive); in the experiment with SW-620, > 100 µM (inactive).

For `CNC1c2ccccc2C(=O)c2cc3c(cc21)OCCOCCOCCOCCO3` (stereo unspecified), the GI50 is > 100 µM (inactive) with 786-0; > 100 µM (inactive) in the experiment with A549; > 100 µM (inactive) in the experiment on ACHN; 17.1 µM (inactive) with CCRF-CEM; > 100 µM (inactive) in the experiment on COLO 205; 39.9 µM in the experiment with HCT-15. Moreover, the GI50 in the experiment on MCF7 was 55.5 µM (inactive); in the experiment with MDA-MB-435, > 100 µM (inactive); in the experiment on NCI-H522, 34.1 µM (inactive); with NCI/ADR-RES, > 100 µM (inactive); with OVCAR-8, > 100 µM (inactive); in the experiment with SK-MEL-28 it was > 100 µM (inactive). Besides, the GI50 in the experiment with SN12C was 99.1 µM (inactive); in the experiment on SNB-75, > 100 µM (inactive); in the experiment on SW-620 it was 81.3 µM (inactive); in the experiment with T47D, > 100 µM (inactive).

Regarding `CN1CCc2ccccc2C(C(=O)c2ccc3c(c2)OCO3)C1=O` (stereo unspecified), the GI50 is > 100 µM (inactive) in the experiment with 786-0; > 100 µM (inactive) in the experiment on A549; > 100 µM (inactive) in the experiment on ACHN; > 100 µM (inactive) with CCRF-CEM; > 100 µM (inactive) in the experiment with COLO 205; > 100 µM in the experiment with HCT-15. Moreover, the GI50 in the experiment on HOP-92, with Malme-3M, in the experiment on NCI-H522, in the experiment with OVCAR-8, in the experiment with SK-MEL-28 and in the experiment with SN12C was > 100 µM (inactive) in each case. Besides, the GI50 with SNB-75 and in the experiment with SW-620 was > 100 µM (inactive) each time.

With `O=C(CCc1nnc2s/c(=C\c3ccc(Cl)cc3Cl)c(=O)n12)Nc1cc(Cl)c(Cl)cc1Cl`, the GI50 was > 10 µM (inactive) with 786-0; > 10 µM (inactive) in the experiment with A549; > 10 µM (inactive) in the experiment on ACHN; > 10 µM (inactive) with CCRF-CEM; > 10 µM (inactive) in the experiment on COLO 205; > 10 µM with HCT-15. In addition, the GI50 was 24 µM (inactive) in the experiment with HOP-92; > 10 µM (inactive) in the experiment with Malme-3M; 2.31 µM (inactive) with NCI-H522; > 10 µM (inactive) in the experiment on OVCAR-8; > 10 µM (inactive) in the experiment with SK-MEL-28; > 10 µM (inactive) in the experiment with SN12C. Further, the GI50 was 29 µM (inactive) in the experiment with SNB-75 and > 10 µM (inactive) in the experiment on SW-620.

`O=C1Nc2ccccc2Cn2c1cc1oc(-c3ccccc3)cc12`: the GI50 in the experiment on 786-0 was 20.4 µM (inactive); in the experiment on A549 it was 32.4 µM (inactive); in the experiment on ACHN it was 37.2 µM (inactive); with CCRF-CEM, > 100 µM (inactive); in the experiment with COLO 205 it was > 100 µM (inactive); with DU-145, 17.3 µM (inactive). Also, the GI50 in the experiment with HCT-15 was 88.9 µM; in the experiment on HOP-92 it was 31.3 µM (inactive); with MCF7, 10.8 µM (inactive); in the experiment with MDA-MB-435 it was > 100 µM (inactive); in the experiment with Malme-3M, 30.3 µM (inactive); in the experiment with NCI-H522, 43.2 µM (inactive). In addition, the GI50 is 45.5 µM (inactive) in the experiment with NCI/ADR-RES; 31 µM (inactive) in the experiment with OVCAR-8; 63.5 µM (inactive) with SK-MEL-28; 27.4 µM (inactive) in the experiment on SN12C; 24.9 µM (inactive) in the experiment on SNB-75; > 100 µM (inactive) in the experiment with SW-620. For the same molecule, the GI50 in the experiment on T47D is 23.8 µM (inactive).

Regarding `CCOC(=O)C(=O)Nc1nc2ccc(C)cc2s1`, the GI50 in the experiment with 786-0 was 27.9 µM (inactive); in the experiment on A549, 32.4 µM (inactive); in the experiment with ACHN, > 100 µM (inactive); with CCRF-CEM, > 100 µM (inactive); with COLO 205, > 100 µM (inactive); in the experiment with HCT-15, > 100 µM. Besides, the GI50 in the experiment with HOP-92, in the experiment with Malme-3M, in the experiment with NCI-H522, in the experiment on OVCAR-8, with SK-MEL-28 and in the experiment on SN12C was > 100 µM (inactive) in each case. The GI50 in the experiment with SNB-75 and in the experiment with SW-620 was > 100 µM (inactive) in each case.

For `CCOC(=O)C(C(=O)OCC)=c1sc(=C(C(=O)OCC)C(=O)OCC)s1`, the GI50 is > 100 µM (inactive) in the experiment on 786-0; > 100 µM (inactive) in the experiment with A549; > 100 µM (inactive) in the experiment on ACHN; > 100 µM (inactive) in the experiment on CCRF-CEM; > 100 µM (inactive) in the experiment on COLO 205; > 100 µM in the experiment on HCT-15. The GI50 in the experiment on HOP-92, with Malme-3M, in the experiment with NCI-H522, with OVCAR-8, with SK-MEL-28 and with SN12C was > 100 µM (inactive) each time. The figures for the GI50 in the experiment on SNB-75 and in the experiment on SW-620 were 76.2 µM (inactive) and > 100 µM (inactive), respectively.

Turning to `COc1ccc(NC(=O)c2oc3cc(O)ccc3c(=O)c2C)c([N+](=O)[O-])c1`, the GI50 was > 100 µM (inactive) in the experiment on 786-0; > 100 µM (inactive) with A549; > 100 µM (inactive) in the experiment on ACHN; > 100 µM (inactive) with CCRF-CEM; > 100 µM (inactive) with COLO 205; > 100 µM in the experiment with HCT-15. In addition, the GI50 in the experiment with HOP-92, in the experiment with Malme-3M, in the experiment on NCI-H522, with OVCAR-8, in the experiment on SK-MEL-28 and with SN12C was > 100 µM (inactive) each time. Further, the GI50 in the experiment with SNB-75 and in the experiment on SW-620 was > 100 µM (inactive) in each case.
